In patent US20030050306A1, “Novel heteroaryl derivatives, their preparation and use” (H. Lundbeck A/S, priority 1999, published 2003):
Counter-ions that a name gives are not always drawn.

Experiments:
[1] = target: T1, human cloned dopamine D4.2 receptors (Homo sapiens, UniProt P21917, DEL265-296); test: Inhibition of the binding of 3H-YM-09151-2 to human dopamine D4 receptors; conditions: at 50 nM; human cloned dopamine D4.2 receptors in CHO-cells
T1 construct: expressed in transfected cells; host or cells: CHO cells
T1 sequence (P21917 with tags, fused parts or gaps DEL265-296): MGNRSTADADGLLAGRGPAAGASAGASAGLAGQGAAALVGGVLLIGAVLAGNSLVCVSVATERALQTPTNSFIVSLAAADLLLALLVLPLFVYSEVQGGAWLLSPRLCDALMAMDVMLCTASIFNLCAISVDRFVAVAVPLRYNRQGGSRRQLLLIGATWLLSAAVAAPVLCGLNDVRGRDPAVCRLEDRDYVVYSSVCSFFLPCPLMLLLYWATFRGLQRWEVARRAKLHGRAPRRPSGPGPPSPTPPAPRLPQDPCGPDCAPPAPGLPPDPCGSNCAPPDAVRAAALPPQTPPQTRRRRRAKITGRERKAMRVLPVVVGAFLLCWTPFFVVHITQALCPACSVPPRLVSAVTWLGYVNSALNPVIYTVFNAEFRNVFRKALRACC
In short: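 Radioligand displacement of [3H]YM-09151-2 (0.06 nM) from membranes of CHO cells expressing cloned human D4.2 receptors, measured in vitro.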

[2] = target: T2, cloned human 5-HT1A receptors (Homo sapiens, UniProt P08908); test: Inhibition of 3H-5-CT binding to human 5-HT1A receptors; conditions: cloned human 5-HT1A receptors in HeLa cells (HA7); for inhibition at 0.1 µM: at 100 nM
T2 construct: expressed in transfected cells; host or cells: HeLa cells (HA7)
T2 sequence (P08908 1-422): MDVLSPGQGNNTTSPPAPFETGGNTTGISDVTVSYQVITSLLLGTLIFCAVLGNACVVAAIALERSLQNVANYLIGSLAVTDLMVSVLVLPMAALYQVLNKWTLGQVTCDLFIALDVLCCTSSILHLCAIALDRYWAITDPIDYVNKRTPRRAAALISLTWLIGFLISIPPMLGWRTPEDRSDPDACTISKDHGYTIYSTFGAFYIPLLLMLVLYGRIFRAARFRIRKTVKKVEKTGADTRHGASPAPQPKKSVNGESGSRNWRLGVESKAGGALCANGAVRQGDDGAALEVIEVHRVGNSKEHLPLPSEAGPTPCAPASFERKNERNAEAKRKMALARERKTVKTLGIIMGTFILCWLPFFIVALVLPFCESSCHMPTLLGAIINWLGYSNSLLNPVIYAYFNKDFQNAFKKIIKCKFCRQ
In short: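 Cloned human 5-HT1A receptors stably expressed in transfected HeLa cells (HA7); 40 μg cell homogenate incubated 15 min at 37° C in 50 mM Tris pH 7.7 with 3H-5-CT. Non-specific binding defined with 10 μM metergoline; bound radioligand separated by rapid GF/B filtration and counted.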

| melting point [°C] | inhibition at 0.05 µM [1] [%] | inhibition at 0.1 µM [2] [%] | IC50 [2] [nM] | SMILES |
| --- | --- | --- | --- | --- |
| 210 to 220 |  |  |  | Fc1cc(F)c(OCCCN2CCN(c3cccc4c3OCCO4)CC2)c(F)c1 (as salt: hydrochloride) [Compound 1c, 1-(2,3-Dihydro-benzo[1,4]dioxin-5-yl)-4-[3-(2,4,6-trifluoro-phenoxy)-propyl]-piperazine] |
| 216 to 219 |  |  |  | Fc1ccc(SCCCN2CCN(c3cccc4ccsc34)CC2)c(Cl)c1 (as salt: hydrochloride) [Compound 2e, 1-Benzo[b]thiophen-7-yl-4-[3-(2-chloro-4-fluoro-phenylsulfanyl)-propyl]-piperazine] |
| 193 to 195 |  |  |  | Fc1ccc(OCCCCN2CCN(c3cccc4ccsc34)CC2)c(Cl)c1 (as salt: hydrochloride) [Compound 2f, 1-Benzo[b]thiophen-7-yl-4-[4-(2-chloro-4-fluoro-phenoxy)-butyl]-piperazine] |
| 179 to 181 |  |  |  | Clc1cccc(Cl)c1OCCCN1CCN(c2cccc3c2OCCO3)CC1 (as salt: oxalate) [Compound 1b, 1-[3-(2,6-Dichloro-phenoxy)-propyl]-4-(2,3-dihydro-benzo[1,4]dioxin-5-yl)-piperazine] |
| 141 to 142 |  |  |  | COc1cc(F)ccc1OCCCN1CCN(c2cccc3c2OCCO3)CC1 (as salt: oxalate) [Compound 1d, 1-(2,3-Dihydro-benzo[1,4]dioxin-5-yl)-4-[3-(4-fluoro-2-methoxy-phenoxy)-propyl]-piperazine] |
| 139 to 150 |  |  |  | Cc1cc(F)ccc1OCCCN1CCN(c2cccc3c2OCCO3)CC1 (as salt: oxalate) [Compound 1e, 1-(2,3-Dihydro-benzo[1,4]dioxin-5-yl)-4-[3-(4-fluoro-2-methyl-phenoxy)-propyl]-piperazine] |
| 148 to 150 |  |  |  | FC(F)(F)c1ccc(OCCCN2CCN(c3cccc4c3OCCO4)CC2)cc1 (as salt: oxalate) [Compound 2b, 1-(2,3-Dihydro-benzo[1,4]dioxin-5-yl)-4-[3-(4-trifluoromethyl-phenoxy)-propyl]-piperazine] |
| 167 to 169 |  |  |  | Fc1ccccc1OCCCN1CCN(c2cccc3c2OCCO3)CC1 (as salt: oxalate) [Compound 2c, 1-(2,3-Dihydro-benzo[1,4]dioxin-5-yl)-4-[3-(2-fluoro-phenoxy)-propyl]-piperazine] |
|  | 75 | 90 |  | Clc1ccccc1SCCN1CCN(c2cccc3c2OCCO3)CC1 [Compound 7av, 1-[2-(2-Chloro-phenylsulfanyl)-ethyl]-4-(2,3-dihydro-benzo[1,4]dioxin-5-yl)-piperazine] |
|  | 92 | 74 |  | Fc1ccccc1SCCN1CCN(c2cccc3c2OCCO3)CC1 [Compound 7aw, 1-(2,3-Dihydro-benzo[1,4]dioxin-5-yl)-4-[2-(2-fluoro-phenylsulfanyl)-ethyl]-piperazine] |
|  | 100 |  | 9.2 | CCc1ccccc1SCCCN1CCN(c2cccc3c2OCCO3)CC1 [Compound 7ax, 1-(2,3-Dihydro-benzo[1,4]dioxin-5-yl)-4-[3-(2-ethyl-phenylsulfanyl)-propyl]-piperazine] |
|  | 102 |  | 2 | Clc1ccc(Cl)c(SCCCN2CCN(c3cccc4c3OCCO4)CC2)c1 [Compound 7ay, 1-[3-(2,5-Dichloro-phenylsulfanyl)-propyl]-4-(2,3-dihydro-benzo[1,4]dioxin-5-yl)-piperazine] |
|  | 92 | 100 |  | Clc1cccc(SCCCN2CCN(c3cccc4c3OCCO4)CC2)c1 [Compound 7az, 1-[3-(3-Chloro-phenylsulfanyl)-propyl]-4-(2,3-dihydro-benzo[1,4]dioxin-5-yl)-piperazine] |
|  | 84 | 97 |  | Fc1ccccc1SCCCN1CCN(c2cccc3c2OCCO3)CC1 [Compound 7ba, 1-(2,3-Dihydro-benzo[1,4]dioxin-5-yl)-4-[3-(2-fluoro-phenylsulfanyl)-propyl]-piperazine] |
|  | 96 | 82 |  | Cc1ccccc1SCCCCN1CCN(c2cccc3c2OCCO3)CC1 [Compound 7bc, 1-(2,3-Dihydro-benzo[1,4]dioxin-5-yl)-4-(4-o-tolylsulfanyl-butyl)-piperazine] |
|  | 102 | 84 |  | Clc1ccc(Cl)c(SCCCCN2CCN(c3cccc4c3OCCO4)CC2)c1 [Compound 7bd, 1-[4-(2,5-Dichloro-phenylsulfanyl)-butyl]-4-(2,3-dihydro-benzo[1,4]dioxin-5-yl)-piperazine] |
|  | 102 | 102 |  | Clc1ccccc1SCCCCN1CCN(c2cccc3c2OCCO3)CC1 [Compound 7be, 1-[4-(2-Chloro-phenylsulfanyl)-butyl]-4-(2,3-dihydro-benzo[1,4]dioxin-5-yl)-piperazine] |
|  | 91 | 101 |  | Fc1ccccc1SCCCCN1CCN(c2cccc3c2OCCO3)CC1 [Compound 7bf, 1-(2,3-Dihydro-benzo[1,4]dioxin-5-yl)-4-[4-(2-fluoro-phenylsulfanyl)-butyl]-piperazine] |
|  | 64 | 81 |  | COc1ccc(SCCN2CCN(c3cccc4c3OCCO4)CC2)cc1OC [Compound 7bg, 1-(2,3-Dihydro-benzo[1,4]dioxin-5-yl)-4-[2-(3,4-dimethoxy-phenylsulfanyl)-ethyl]-piperazine] |
|  | 101 | 96 |  | Fc1ccc(SCCCCN2CCN(c3cccc4c3OCCO4)CC2)c(Cl)c1 [Compound 7bi, 1-[4-(2-Chloro-4-fluoro-phenylsulfanyl)-butyl]-4-(2,3-dihydrobenzo[1,4]dioxin-5-yl)-piperazine] |
|  | 92 | 106 |  | FC(F)(F)Oc1ccc(SCCCN2CCN(c3cccc4c3OCCO4)CC2)cc1 [Compound 7bj, 1-(2,3-Dihydro-benzo[1,4]dioxin-5-yl)-4-[3-(4-trifluoromethoxy-phenylsulfanyl)-propyl]-piperazine] |
|  | 84 | 91 |  | COc1ccc(OC)c(SCCCN2CCN(c3cccc4c3OCCO4)CC2)c1 [Compound 7bk, 1-(2,3-Dihydro-benzo[1,4]dioxin-5-yl)-4-[3-(2,5-dimethoxy-phenylsulfanyl)-propyl]-piperazine] |
|  | 102 | 95 |  | Brc1cccc(SCCCN2CCN(c3cccc4c3OCCO4)CC2)c1 [Compound 7bl, 1-(2,3-Dihydro-benzo[1,4]dioxin-5-yl)-4-[3-(3-bromo-phenylsulfanyl)-propyl]-piperazine] |
|  | 83 | 95 |  | COc1ccccc1SCCCCN1CCN(c2cccc3c2OCCO3)CC1 [Compound 7bm, 1-(2,3-Dihydro-benzo[1,4]dioxin-5-yl)-4-[4-(2-methoxy-phenylsulfanyl)-butyl]-piperazine] |
|  | 93 | 93 |  | CC(C)c1ccccc1SCCCCN1CCN(c2cccc3c2OCCO3)CC1 [Compound 7bn, 1-(2,3-Dihydro-benzo[1,4]dioxin-5-yl)-4-[4-(2-isopropyl-phenylsulfanyl)-butyl]-piperazine] |
|  | 102 | 91 |  | Cc1ccccc1SCCN1CCN(c2cccc3c2OCCO3)CC1 [Compound 7bo, 1-(2,3-Dihydro-benzo[1,4]dioxin-5-yl)-4-(2-o-tolylsulfanyl-ethyl)-piperazine] |
|  | 99 | 92 |  | C=CCc1ccccc1OCCCCN1CCN(c2cccc3c2OCCO3)CC1 [Compound 7bp, 1-[4-(2-Allyl-phenoxy)-butyl]-4-(2,3-dihydro-benzo[1,4]dioxin-5-yl)-piperazine] |

| SMILES | melting point [°C] | inhibition at 0.05 µM [1] [%] | inhibition at 0.1 µM [2] [%] | IC50 [2] [nM] |
| --- | --- | --- | --- | --- |
| N#Cc1ccc(OCCCCN2CCN(c3cccc4c3OCCO4)CC2)c(Cl)c1 [Compound 7bb, 3-Chloro-4-{4-[4-(2,3-dihydro-benzo[1,4]dioxin-5-yl)-piperazin-1-yl]-butoxy}-benzonitrile] |  | 94 | 101 |  |
| N#Cc1cccc(OCCCCN2CCN(c3cccc4c3OCCO4)CC2)c1 [Compound 7bh, 3-{4-[4-(2,3-Dihydro-benzo[1,4]dioxin-5-yl)-piperazin-1-yl]-butoxy}-benzonitrile] |  | 84 | 95 |  |
